Source: US20250276993A1, “PSEUDO-DISACCHARIDE COMPOUNDS” (UNIVERSITEIT LEIDEN, priority 2022, published 2025)

Columns and labels:
GUSB = molecular target: T1, GUSB (Homo sapiens, UniProt P08236); assay: cABPP Assay 2, platelet lysates, GUSB; type: biochemical; settings: preincubation with inhibitor
T1 construct: Platelet lysates contain complex mixtures of overlapping enzyme activities, including both endo- and exo-β-glucuronidases HPSE and GUSB; endogenous in cells; host or cells: human platelet lysates
T1 sequence (P08236 23-651): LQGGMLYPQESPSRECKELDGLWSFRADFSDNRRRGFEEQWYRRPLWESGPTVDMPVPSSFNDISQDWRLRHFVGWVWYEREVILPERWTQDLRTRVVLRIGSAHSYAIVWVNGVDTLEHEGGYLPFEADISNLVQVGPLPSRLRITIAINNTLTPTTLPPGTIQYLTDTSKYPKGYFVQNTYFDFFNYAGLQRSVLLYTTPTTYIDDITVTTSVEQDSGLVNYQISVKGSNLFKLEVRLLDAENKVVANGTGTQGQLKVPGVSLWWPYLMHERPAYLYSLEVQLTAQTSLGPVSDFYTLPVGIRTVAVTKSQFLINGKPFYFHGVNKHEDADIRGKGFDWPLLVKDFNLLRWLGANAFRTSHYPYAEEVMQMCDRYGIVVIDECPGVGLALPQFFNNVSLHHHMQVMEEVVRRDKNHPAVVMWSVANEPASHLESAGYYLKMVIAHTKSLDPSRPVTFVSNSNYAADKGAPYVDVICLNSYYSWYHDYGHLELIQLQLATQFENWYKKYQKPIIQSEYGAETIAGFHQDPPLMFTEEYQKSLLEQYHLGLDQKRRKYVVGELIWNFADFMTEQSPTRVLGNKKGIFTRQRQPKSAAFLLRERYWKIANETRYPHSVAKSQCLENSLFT
Method: (§1) For further competitive ABPP studies, a working protein mixture was prepared by mixing the platelet lysates (87.5 μL), buffer (pH 5.0, 150 mM, 157.5 μL) and 3 M NaCl solution (35 μL). The enzymatic reactions were carried out at a constant concentration of read-out 7 (100 nM, final). For each inhibitor 2, 12 and 13, triplicate sets of ten 0.5 mL low protein binding Eppendorf tubes were prepared. Working solutions of each inhibitor (1% DMSO (w/v), 5 μL) in a range of ten concentrations (100, 50, 25, 12.5, 6.3, 3.1, 1.6, 0.8, 0.4, 0 μM) were prepared with MilliQ water and kept on ice. The working protein mixture (8 μL) was added in each protein low binding 0.5 mL Eppendorf tube, and 1 μL of inhibitor solution was added while on ice.
(§2) Further cABPP studies were undertaken using platelet lysates to provide a more physiologically realistic environment. Platelet lysates contain complex mixtures of overlapping enzyme activities, including both endo- and exo-β-glucuronidases HPSE and GUSB respectively, thus provide a challenging environment to test inhibitor specificity.

HPSE (platelet) = molecular target: T2, HPSE (platelet) (Homo sapiens, UniProt Q9Y251); assay: cABPP Assay 2, platelet lysates, HPSE; type: biochemical; settings: for IC50: apparent IC50, in-gel competitive ABPP-based assay, platelet lysate, read-out: In vitro IC50 HPSE (platelet); for inhibitor concentration down to which HPSE signal is abrogated: platelet lysates, preincubation with inhibitor
T2 construct: endogenous in cells; host or cells: human platelet lysates
T2 sequence (Q9Y251 158-543 limits assumed): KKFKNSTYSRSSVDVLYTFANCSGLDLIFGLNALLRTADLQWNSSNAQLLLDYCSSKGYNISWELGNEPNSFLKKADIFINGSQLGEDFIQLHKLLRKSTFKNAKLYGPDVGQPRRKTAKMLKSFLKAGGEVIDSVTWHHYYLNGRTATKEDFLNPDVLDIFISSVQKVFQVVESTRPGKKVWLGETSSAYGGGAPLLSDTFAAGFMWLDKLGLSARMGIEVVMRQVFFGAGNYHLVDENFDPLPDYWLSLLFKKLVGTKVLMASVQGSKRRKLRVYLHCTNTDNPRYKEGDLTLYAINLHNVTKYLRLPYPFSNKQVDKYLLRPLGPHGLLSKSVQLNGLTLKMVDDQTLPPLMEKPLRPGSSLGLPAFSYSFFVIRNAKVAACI
T2 sequence (Q9Y251 36-109 limits assumed): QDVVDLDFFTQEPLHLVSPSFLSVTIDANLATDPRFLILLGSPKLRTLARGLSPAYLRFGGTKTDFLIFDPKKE
Method: as §1, §2

AcGH79 = AcGH79 (Acidobacterium capsulatum, UniProt C1F2K5); assay: in-gel competitive ABPP, recombinant AcGH79; type: biochemical, A. capsulatum; settings: Cy5-tagged β-D-glucuronidase ABP read-out, at the tested enzyme concentration
Method: (§3) ABP labelling reactions were carried out in Mcllvaine buffer (pH 5.5), 300 mM NaCl. For recombinant proteins 200 fmol of EcGH2, BpHep, AcGH79, HPSE or proHPSE was used (20 nM in 10 μl final reaction volume). For labeling cell lysates, 4-20 μg total protein was used. Labeling reactions were initiated by the addition of ABP compounds 7, 8 or 9 to a final concentration of 100 nM (unless otherwise specified), before incubation for 30 min at 37° C. with shaking. Following labeling, samples were denatured by boiling with Laemmli buffer for 5 min and resolved by SDS-PAGE. Gels were scanned using Typhoon-5 laser scanner platform (Cytiva), using the λEX 635 nm laser and 670BP30 emission filter. For competitive ABPP (cABPP) experiments, protein mixtures were preincubated with inhibitor (or buffer only control) for 1 h at 37° C. with shaking, before the addition of 7 to a final concentration of 100 nM, and subsequent incubation for 30 min at 37° C. with shaking. SDS-PAGE and analysis steps were carried out as above. For quantitative measurements, fluorescently labeled band intensities were calculated using Imagequant (Cytiva), and normalized to the corresponding band in the inhibitor free control lane. cABPP plots were prepared and analyzed using SigmaPlot 14.0 (Systat).
(§4) Competitive activity of compounds 2, 12 and 13 were investigated using cABPP Assay 2.

rHPSE = molecular target: T3, rHPSE (Homo sapiens, UniProt Q9Y251); assay: in-gel competitive ABPP, recombinant HPSE; type: biochemical; settings: for IC50: apparent IC50, in-gel competitive ABPP-based assay, read-out: In vitro IC50 rHPSE
T3 sequence (Q9Y251 36-109 limits assumed): T2 sequence (Q9Y251 36-109 limits assumed)
T3 sequence (Q9Y251 158-543 limits assumed): T2 sequence (Q9Y251 158-543 limits assumed)
Method: as §3, §4
To gain insight into HPSE structure-activity relationships, apparent HPSE inhibition was tested for cyclitol 12, its disaccharidic analogue 13 and parent HPSE inhibitor 2 (FIG. 7a). […] Conversely, 13 could inactivate rHPSE down to 2 μM inhibitor concentration similar to 2.

HPSE [1] = molecular target: T4, HPSE (Homo sapiens, UniProt Q9Y251); assay: cABPP Assay 1, recombinant HPSE; type: biochemical; settings: 1 h preincubation at 37° C., pH 5.5, 100 nM ABP 7
T4 sequence (Q9Y251 36-109 limits assumed): T2 sequence (Q9Y251 36-109 limits assumed)
T4 sequence (Q9Y251 158-543 limits assumed): T2 sequence (Q9Y251 158-543 limits assumed)

HPSE [2] = molecular target: T4, HPSE; assay: X-ray crystallography, ligand soaking of HPSE crystals; settings: crystal soaking
Source text: Xray diffraction data were collected at 100 K at beamlines i03 (HPSE-2, HPSE-3, HPSE-4, EcGUSB-1, BpHep-3), i04 (AcGH79-2, BpHep-2) and i04-1 (Apo-AcGH79, AcGH79-1, AcGH79-3) of the Diamond Light Source UK. Reflections were autoprocessed using the XIA2 pipeline. Complexes were solved by directly refining against their unliganded structures where isomorphous, or else solved by molecular replacement with PHASER (search model PDB accessions: 5E98 (HPSE), 3VNY (AcGH79), 3K46 (EcGUSB), 5BWI (BpHep)). […] Ligand coordinates were built using jLigand. Diagrams were generated using PyMOL.
HPSE—Well diffracting crystals of HPSE were obtained by the sitting-drop vapor-diffusion method at 20° C. using a well solution containing 0.1 M MES pH 5.5, 0.1 M MgCl2, 17% (w/v) PEG 3350, and a protein to well solution ratio of 200 nl:500 nl. Crystals typically appeared after 1 week. Inhibitor ligand complexes were obtained by transferring HPSE crystals to drops of well solution supplemented with 25% (v/v) ethylene glycol and 1-5 mM inhibitor. Crystals were incubated with ligand for ˜2-4 h, then directly harvested and flash-cooled in LN2 for data collection.
To better understand the molecular basis of interaction between our inhibitors and their targets, we turned to X-ray crystallography, using ligand soaking to derivatize enzymes in crystallo.

BpHep and AcGH79 = type: biochemical, B. pseudomallei; A. capsulatum; settings: cABPP Assay 1
HPSE [3] = molecular target: T5, HPSE (Homo sapiens, UniProt Q9Y251); assay: fluorescent ABP labelling of whole cell lysates; type: biochemical
T5 construct: fluorescent ABPs 7, 8 and 9 were applied to whole cell lysates from a panel of human cancer cell lines; endogenous in cells; host or cells: U87, PANC1, SKBR3, MDA-MB-231, HT1080, platelet lysates
T5 sequence (Q9Y251 36-543): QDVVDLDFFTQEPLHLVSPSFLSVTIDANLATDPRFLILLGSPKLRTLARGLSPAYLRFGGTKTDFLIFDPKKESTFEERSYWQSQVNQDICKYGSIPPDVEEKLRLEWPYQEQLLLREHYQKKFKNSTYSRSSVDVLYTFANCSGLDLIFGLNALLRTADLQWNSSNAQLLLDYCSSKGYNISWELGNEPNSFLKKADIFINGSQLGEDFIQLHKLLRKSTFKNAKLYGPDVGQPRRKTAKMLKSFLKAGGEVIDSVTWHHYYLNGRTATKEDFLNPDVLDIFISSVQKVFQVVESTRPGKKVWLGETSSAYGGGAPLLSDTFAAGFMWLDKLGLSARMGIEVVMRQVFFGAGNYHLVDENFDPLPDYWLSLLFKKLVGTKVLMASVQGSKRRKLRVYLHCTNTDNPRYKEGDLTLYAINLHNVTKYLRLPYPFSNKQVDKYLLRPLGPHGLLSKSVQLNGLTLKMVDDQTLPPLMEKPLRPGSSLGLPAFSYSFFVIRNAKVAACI
Method: as §3, with “(Systat). […]” for “(Systat).”

Row | Compound | effect on GUS signals (GUSB) | IC50 (HPSE (platelet)) [nM] | inhibitor concentration down to which HPSE signal is abrogated (HPSE (platelet)) [µM] | IC50 (rHPSE) [nM] | HPSE inhibition (abrogation of labelling by ABP 7) (HPSE [1]) | also measured
1 | O=C(O)C1C2O[C@H]2C(O)C(O)[C@@H]1O[C@H]1CC(CO)[C@@H](O)C(O)C1O (stereo in doubt) [Compound 12, 4,5-dihydroxy-3-((2,3,4-trihydroxy-5-(hydroxymethyl)cyclohexyl)oxy)-7-oxabicyclo[4.1.0]heptane-2-carboxylic acid] | without altering GUS signals | 400 ± 200 | 2.5 | 500 ± 500 |  | IC50 (AcGH79): 1200 ± 300 nM
2 | O=C(O)C1C2O[C@H]2C(O)C(O)[C@@H]1O[C@H]1OC(CO)[C@@H](O)C(O)C1O (stereo in doubt) [Compound 13, 4,5-dihydroxy-3-((3,4,5-trihydroxy-6-(hydroxymethyl)tetrahydro-2H-pyran-2-yl)oxy)-7-oxabicyclo[4.1.0]heptane-2-carboxylic acid] | without altering GUS signals | 5000 ± 1000 | 2.5 | 1000 ± 1000 |  | inhibitor concentration down to which rHPSE is inactivated (rHPSE; in-gel competitive ABPP): 2 µM
3 | O=C(O)C1C2O[C@H]2C(O)C(O)[C@@H]1O[C@@H]1CC(O)[C@H](O)C(CO)O1 (stereo partly drawn) [Compound 4, 4-O-(2-deoxy-D-glucopyranosyl)-glucurono-cyclophellitol] |  |  |  |  | inhibited HPSE at nanomolar concentrations | binding mode in HPSE active site cleft (HPSE [2]): covalent linkages between their pseudo-anomeric carbons and the enzyme nucleophile Glu343
4 | NC1C(O)[C@H](O)C(CO)O[C@@H]1O[C@H]1C(O)C(O)[C@@H]2OC2C1C(=O)O (stereo partly drawn) [Compound 5, 4-O-(2-amino-2-deoxy-D-glucopyranosyl)-glucurono-cyclophellitol] |  |  |  |  | do not inhibit HPSE well | Inhibition of BpHep and AcGH79 (BpHep and AcGH79): all compounds apart from 5 showing activity
5 | [N-]=[N+]=NCC(=O)NC1C(O)[C@H](O)C(CO)O[C@@H]1O[C@H]1C(O)C(O)[C@@H]2OC2C1C(=O)O (stereo partly drawn) [Compound 6, 4-O-(2-N-azidoacetyl-2-deoxy-D-glucopyranosyl)-glucurono-cyclophellitol] |  |  |  |  | do not inhibit HPSE well | 
6 | CC(=O)NC1[C@@H](O[C@@H]2C(C(=O)O)C3O[C@H]3C(O)[C@H]2O)OC(CO)[C@@H](OCCCCCCCCNC(=O)CCCCC[N+]2=C(/C=C/C=C/C=C3/N(C)c4ccccc4C3(C)C)C(C)(C)c3ccccc32)[C@@H]1O (stereo partly drawn) [Compound 9, 4-O-(2-N-acetyl-2-deoxy-4-O-(8-amino-Cy5-1-octyl)-α-D-glucopyranosyl)-glucurono-cyclophellitol] |  |  |  |  |  | most substantial off-target (HPSE [3]; 10 μM ABP concentration): serum albumin; HPSE specificity of labelling (HPSE [3]; ABP at 1 μM and 10 μM, lysates of U87, PANC1, SKBR3, MDA-MB-231, HT1080, platelets): markedly improved HPSE specificity compared to both 7 and 8
